Test results: patent US12599645B2, “Antibodies which bind to lysophosphatidic acid receptor 1 (LPAR1)” (DJS ANTIBODIES LTD, priority 2021, dated 2026)
Like-named read-outs stand apart in the source and are kept apart here. Values belong to the molecule of their own block, whether it stands above or below them.

Legend:
diabetic nephropathy = settings: 8 weeks, cited from earlier work
LPAR1 = LPAR1 (Homo sapiens, UniProt Q92633); test: BRET assay (G protein activation and βArrestin 2 biosensors); format: cell-based; design: expressed in transfected cells; host or cells: HEK293 (transient, PEI)
Experimental: Using polyethylenimine (PEI) transfection agent at a 3:1 ratio, HEK293 cells were co-transfected in suspension with hLPAR1 and one of the following biosensors: G protein activation sensors (Gαi2, Gα13, and Gαq) and the βArrestin 2-PM recruitment biosensor (+GRK2). Cells were directly seeded in 96-well plates immediately following transfection at a density of 35,000 cells/well. 48 hours post-transfection, BRET experiments were performed in both agonist and allosteric/antagonist mode. Using a plate washer, culture medium was aspirated and replaced with 30 μl of Hank's Balanced Salt Solution buffer (HBSS). Plates were equilibrated at room temperature for 60 minutes. For agonist testing, serial dilutions of the antibodies were performed in PBS and then added to each well. Antibodies were assayed at 12 concentrations in technical duplicates. Small molecules were added to each relevant well. Small molecules were assayed at 22 concentrations with each biosensor. Cells were then incubated with the antibodies or small molecules at room temperature for 60 or 10 minutes, respectively. 10 μl of 10 μM e-Coelenterazine Prolume Purple (Nanolight) was then added to each well. Cells were incubated at room temperature for an additional 10 minutes. BRET readings were then collected with a 0.4 sec integration time on a plate reader (filters: 400 nm/70 nm, 515 nm/20 nm). For allosteric testing (after agonist testing), an EC75 of the endogenous ligand (oleoyl-LPA) was added to each well already containing antibody or small molecule. Cells were incubated at room temperature for an additional 10 minutes. BRET readings were then collected with a 0.4 sec integration time on a plate reader (filters: 400 nm/70 nm, 515 nm/20 nm). BRET signals were determined by calculating the ratio of light emitted by GFP-acceptor (515 nm) over light emitted by luciferase-donor (400 nm). All BRET ratios were standardized with pre-established BRET values for positive and negative controls. The standardized BRET ratio is referred to as universal BRET (uBRET). Resulting dose-response curves were fitted using the three- or four-parameter logistic non-linear regression model in GraphPad Prism 9.
The inhibition characteristics of Antibody 12 were investigated by Bioluminescence Resonance Energy Transfer (BRET, method 1.15) and compared to a small molecule LPAR1 inhibitor of the prior art (BMS-986020), see FIG. 13. The upper lines are values recorded with LPA present and the lower lines are values recorded with LPA not present. […] This can only happen if the ligand (LPA) is also interacting with the receptor at the same time to enable some signalling. […]

[1] = system: idiopathic pulmonary fibrosis; settings: cited from earlier work
[2] = system: renal fibrosis after UUO surgery; test: Unilateral ureteral obstruction (UUO) efficacy model of renal fibrosis; format: in vivo, Hartley guinea pigs
Experimental: Unilateral ureteral obstruction (UUO) is a well-characterized disease model for renal fibrosis. The UUO model encompasses key pathophysiological features of chronic kidney disease; tubular necrosis and inflammatory cell infiltration within a relatively short period.
Two unilateral ureteral obstruction (UUO) model efficacy studies were carried out in six-week old female Hartley guinea pigs. On Day 0, UUO surgery was performed. BMS-986020 was administered orally at a dose level of 30 mg/kg in a volume of 5 mL/kg twice daily at from Day −1 to 9. Isotype control and anti-LPAR1 antibody was intraperitoneally administered at a dose level of 6 mg/kg (low) or 20 mg/kg (high) in a volume of 10 mL/kg at Day −1, Day 0, Day 3 and Day 6. The viability, clinical signs, behaviour and individual body weight was monitored daily.
The animals were sacrificed at Day 10. The ligated left kidney and right kidney weight were measured at sacrifice.
Hydroxyproline is an amino acid, making up around 14% of collagen and acts as an important indicator of the severity of fibrosis. To quantify kidney hydroxyproline content, frozen posterior right section of left kidney samples were processed by an alkaline-acid hydrolysis method. AC buffer (2.2M acetic acid/0.48M citric acid) was added to the samples, followed by centrifugation to collect the supernatant. A standard curve of hydroxyproline was constructed with serial dilutions of trans-4-hydroxy-L-proline (Sigma-Aldrich, USA) starting at 16 μg/mL. The prepared samples and standards were mixed with chloramine T solution (Nacalai Tesque Inc., Japan) and incubated for 25 minutes at room temperature. The samples were then mixed with Ehrlich's solution and heated at 65° C. for 20 minutes to develop the colour. After samples were cooled on ice and centrifuged to remove precipitates, the optical density of each supernatant was measured at 560 nm. The concentrations of hydroxyproline were calculated from the hydroxyproline standard curve. Protein concentrations of kidney samples were determined using a BCA protein assay kit (Thermo Fisher Scientific, USA) and used to normalize the calculated hydroxyproline values. Kidney hydroxyproline contents were expressed as μg per mg protein.
The left kidney was fixed in Bouin's solution and embedded in paraffin. For PAS staining, sections were cut from paraffin blocks and stained with Schiff's reagent (FUJIFILM Wako pure chemical corporation, Japan) according to the manufacturer's instructions. To visualize collagen deposition, kidney sections were stained using picro-Sirius red solution (FUJIFILM Wako pure chemical corporation). For quantification of interstitial and medulla fibrosis area, bright field images in the corticomedullary region were captured using a digital camera (DFC295) at 200-fold magnification, and the positive areas in 5 fields/section were measured using ImageJ software (National Institute of Health, USA).

[3] = system: hepatic bile acid efflux transporters (e.g., BSEP, MRP3 and MRP4); settings: cited from earlier work
human LPAR1 [4] = target: T1, human LPAR1 (Homo sapiens, UniProt Q92633, N35A); test: In vitro epitope analysis: transient-transfection CIFAT on human LPAR1 with residue substitutions to alanine; format: binding; settings: human LPAR1 position 35 (N, N-terminus) substituted to alanine; binding of mAb with VH SEQ ID NO: 369, VL SEQ ID NO: 39
T1 construct: HA; expressed in transfected cells; host or cells: CHO-K1 (transient)
Experimental: (§1) CHO-K1 cells were seeded in clear 96-well plates at 20,000 cells per 200 μL full growth medium and incubated for 24 hours at 37° C. The following day, in a sterile tube, 0.0309 uL/well PEI (Generon, MW 160,000) was diluted into 10 uL/well transfection medium (DMEM supplemented with 2 mM L-glutamine and Penicillin-Streptomycin). The diluted PEI was added to 100 ng/well DNA encoding the target protein (human LPAR1 (SEQ ID NO: 62) unless otherwise stated), before vortexing immediately and incubating the mixture for 10 minutes at room temperature. 200 μL/well full growth medium was added to the PEI-DNA mixture, then medium in wells was taken off and 200 ul full growth medium/PEI/DNA mixture was added in the wells of the adherent cell plate. […] After washing and cell fixation with 4% PFA, the binding of the antibodies was detected using a goat anti-human Alexa Fluor 488 detection antibody (Invitrogen), incubated for 1 hour at room temperature. Fluorescence at 488 nm was measured using a BMG LABTECH ClarioStar plate reader and microscopy images were taken at 10× magnification.
(§2) Based on the epitope analysis presented in FIGS. 3 and 4, constructs were designed to test the important residues/interaction regions predicted in silico. […] CHO-K1 cells were transiently transfected with these plasm ids and the binding of an anti-LPAR1 mAb assessed to each of these receptor variants using protocol 1.11. […]

human LPAR1 [5] = target: T2, human LPAR1 (Homo sapiens, UniProt Q92633, Q286A); test: as above; format: binding; settings: human LPAR1 position 286 (Q, ECD3) substituted to alanine
T2 construct: HA; expressed in transfected cells; host or cells: CHO-K1 (transient)
Experimental: as §1, §2

[6] = Study 1, BMS-986020 30 mg/kg oral twice daily, antibody 20 mg/kg i.p., Day 10

Chain of LPAR1 (Q92633 whole entry): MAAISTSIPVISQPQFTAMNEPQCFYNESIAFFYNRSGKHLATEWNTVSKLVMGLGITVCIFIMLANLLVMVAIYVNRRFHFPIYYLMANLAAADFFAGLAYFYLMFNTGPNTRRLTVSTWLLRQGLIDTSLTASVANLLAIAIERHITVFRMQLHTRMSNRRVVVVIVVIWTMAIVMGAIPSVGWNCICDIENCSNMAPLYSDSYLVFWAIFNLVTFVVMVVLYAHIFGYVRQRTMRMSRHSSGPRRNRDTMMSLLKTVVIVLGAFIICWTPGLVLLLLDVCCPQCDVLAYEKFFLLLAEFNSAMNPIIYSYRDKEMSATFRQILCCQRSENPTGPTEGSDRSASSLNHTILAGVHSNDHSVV
T1 sequence (Q92633 whole entry N35A): as the sequence (Q92633 whole entry) above, with N35A counted along it
T2 sequence (Q92633 whole entry Q286A): as the sequence (Q92633 whole entry) above, with Q286A counted along it

Molecule: Cc1noc(-c2ccc(-c3ccc(CC(=O)O)cc3)cc2)c1NC(=O)O[C@H](C)c1ccccc1 [AM095]
24 h albuminuria vs untreated controls, reduction (diabetic nephropathy; STZ-induced (early disease model), Lee J H et al. (2019)): ~30% reduction

mode of inhibition (LPAR1; G13 biosensor): competitive inhibitor | inhibition (LPAR1; interaction of G-protein G13 with the GPCR, in the presence of LPA): 100%
Molecule: Cc1noc(-c2ccc(-c3ccc(C4(C(=O)O)CC4)cc3)cc2)c1NC(=O)O[C@H](C)c1ccccc1 [BMS-986020]
hepatobiliary toxicity ([1]; compound-specific, not mediated via antagonism of LPAR1): off-target hepatobiliary toxicity | efficacy in patients with idiopathic pulmonary fibrosis ([1]; human, in vivo): showed efficacy | cortical fibrosis (histological picrosirius staining) [2, 6]: reduced cortical fibrosis | kidney hydroxyproline [2, 6]: No observable difference | histological picrosirius staining ([2]; Study 2): No observable difference | kidney hydroxyproline ([2]; Study 2, BMS-986020 30 mg/kg oral vs vehicle, antibody 20 mg/kg (high) i.p. vs isotype antibody): trend towards reduced hydroxyproline | binding to hepatic bile acid efflux transporters [3]: off-target binding

Molecule: Cc1noc(-c2ccc(CSCCC(=O)O)cc2)c1NC(=O)OC(C)c1ccccc1Cl (stereo not shown) [Ki16425]
24 h albuminuria vs untreated controls, reduction (diabetic nephropathy; db/db (moderate model), Li et al. (2017)): ~30%

Epitope residue (human LPAR1 [4]): Inconclusive | Epitope residue (human LPAR1 [5]): Inconclusive
B1: anti-LPAR1 mAb: mAb of the in vitro epitope analysis; VH of SEQ ID NO: 369 and VL of SEQ ID NO: 39 (antibody, V domains shown)
VH: QVQLVQSGSELKKPGASVKVSCKASGYTFTSSGISWVRQAPGQGLEWMGEILPRSGYTNYNQGFTGRFVFSADKSVSTAYLQISSLKAEDTAVYYCARDFASARYAMDYWGQGTTVTVSS
VL: SIQMTQSPSSLSASVGDRVTITCQASQSVRYNVAWYQQKPGKAPKLLIYYASNRYTGVPSRFSGSGSGTDFTFTISSLQPEDIATYFCQHHYSSPLTFGGGTKLEIK
modifications: REGION 1..120: note = >huVH4_Q61A97A99G104
